The values that follow come from patent publication US8198273B2, “Compounds and methods for kinase modulation, and indications therefor” (Plexxikon Inc., priority 2009, dated 2012).

The series in a line: Relative solubility by turbidity in aqueous buffers of varying pH. It is filed as physicochemical. A digest of the protocol:
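Turbidity endpoint: concentration where optical density at 490, 535 and 650 nm exceeds 0.01, three-wavelength average used. Buffers at pH 1.5, 4.5, 6.8 and 7.4; DMSO serial dilutions of 25 mM stock spiked 1 μL into 99 μL buffer. Low <31.3, moderate 31.3–250, high >250 μM.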

As to `CCCS(=O)(=O)Nc1ccc(F)c(C(=O)c2c[nH]c3ncc(-c4ccc(N(C)C)nc4)cc23)c1F` [P-2229, Propane-1-sulfonic acid {3-[5-(6-dimethylamino-pyridin-3-yl)-1H-pyrrolo[2,3-b]pyridine-3-carbonyl]-2,4-difluoro-phenyl}-amide], the “turbidity threshold (L, M, H) 7.4” value (HEPES pH 7.4) is recorded as “M (moderate solubility if the threshold concentration is 31.3 μM to 250 μM)”. Besides, the “turbidity threshold (L, M, H) 4.5” value (SIF pH 4.5) was “L (low solubility if the threshold concentration is <31.3 04)”. Also, for the setting “SIF pH 6.8”, the “turbidity threshold (L, M, H) 6.8” value is recorded as “M (moderate solubility if the threshold concentration is 31.3 μM to 250 μM)”. In addition, for the setting “buffer pH 1.4 (SGF)”, the “turbidity threshold (L, M, H) 1.4” value was “M (moderate solubility if the threshold concentration is 31.3 μM to 250 μM)”.
